Our source for the TGI values is PubChem BioAssay (NCI).

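Each compound was tested at five concentrations against cells in 96-well plates for 48 hours. TGI denotes the concentration required for complete inhibition of growth.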

Some test systems named below: TK-10 renal; PC-3 prostate; EKVX NSCLC; RPMI-8226 leukemia; NCI/ADR-RES ovarian; U251 CNS; OVCAR-4 ovarian; NCI-H23 lung; HCT-116 colon; SK-OV-3 ovarian; M14 melanoma; HOP-62 NSCLC; SR leukemia; HOP-92 NSCLC; OVCAR-3 ovarian; SNB-75 CNS; RXF 393 renal; NCI-H522 lung; LOX IMVI melanoma; HCC-2998 colon.
Holding throughout (experiment): NCI anticancer screen, dose series, 48 h

On to `Cc1onc(-c2c(F)cccc2Cl)c1C(=O)N[C@@H]1C(=O)N2[C@@H]1SC(C)(C)[C@@H]2C(=O)O`, for which the TGI in the assay with TK-10 renal, in the assay with PC-3 prostate, in the assay with EKVX NSCLC, in the assay with RPMI-8226 leukemia, in the assay with NCI/ADR-RES ovarian and in the assay on U251 CNS was above 100 µM in each case. The TGI in the assay with OVCAR-4 ovarian, in the assay on NCI-H23 lung, in the assay on HCT-116 colon, with SK-OV-3 ovarian, with M14 melanoma and in the assay with HOP-62 NSCLC was above 100 µM in each case. Moreover, the TGI with SR leukemia, in the assay on HOP-92 NSCLC, in the assay with OVCAR-3 ovarian, with SNB-75 CNS, in the assay on RXF 393 renal and in the assay on NCI-H522 lung was above 100 µM in each case.

Regarding `O=c1c2ncn(CCCl)c2n(-c2ccccc2)c(=S)n1-c1ccccc1`, the TGI with TK-10 renal, with PC-3 prostate, in the assay with LOX IMVI melanoma, in the assay on EKVX NSCLC, in the assay on RPMI-8226 leukemia and in the assay with NCI/ADR-RES ovarian was above 100 µM in each case. The TGI in the assay on U251 CNS, in the assay with OVCAR-4 ovarian, with HCC-2998 colon, with NCI-H23 lung, in the assay with HCT-116 colon and with SK-OV-3 ovarian was above 100 µM throughout. Moreover, the TGI in the assay with M14 melanoma, in the assay with HOP-62 NSCLC, in the assay with SR leukemia, in the assay on HOP-92 NSCLC, in the assay with OVCAR-3 ovarian and with RXF 393 renal was above 100 µM in each case. Moreover, the TGI with NCI-H522 lung was above 100 µM.

`NCCc1ccc2c(c1)C(=O)c1c(O)ccc(O)c1C2=O`: the TGI in the assay on TK-10 renal is above 100 µM; in the assay with PC-3 prostate, 26.1 µM; in the assay with LOX IMVI melanoma, above 100 µM; with EKVX NSCLC, 6.73 µM; with RPMI-8226 leukemia, above 100 µM; with NCI/ADR-RES ovarian, above 82.9 µM. Moreover, the TGI with U251 CNS is above 30.9 µM; with OVCAR-4 ovarian, above 100 µM; in the assay with HCC-2998 colon, above 100 µM; in the assay on NCI-H23 lung it was above 60.8 µM; with HCT-116 colon, above 40.3 µM; in the assay on SK-OV-3 ovarian, 22.2 µM. Further, the TGI was above 100 µM in the assay on M14 melanoma; 13.4 µM in the assay with HOP-62 NSCLC; above 100 µM in the assay with SR leukemia; above 100 µM in the assay with HOP-92 NSCLC; 5.66 µM in the assay with OVCAR-3 ovarian; 42.3 µM in the assay with SNB-75 CNS. In the assay with RXF 393 renal, this molecule displayed a TGI above 100 µM.

Turning to `CC1(C)C(=O)C2(C#N)CCC1C2` (stereo unspecified), the TGI with TK-10 renal, with PC-3 prostate, in the assay on LOX IMVI melanoma, in the assay with EKVX NSCLC, with RPMI-8226 leukemia and in the assay with NCI/ADR-RES ovarian was above 100 µM each time. Further, the TGI in the assay with U251 CNS, with OVCAR-4 ovarian, in the assay with HCC-2998 colon, in the assay with NCI-H23 lung, in the assay with HCT-116 colon and in the assay with SK-OV-3 ovarian was above 100 µM throughout. The TGI in the assay on M14 melanoma, with HOP-62 NSCLC, in the assay on SR leukemia, with HOP-92 NSCLC, in the assay on OVCAR-3 ovarian and with SNB-75 CNS was above 100 µM throughout. Besides, the TGI in the assay with RXF 393 renal is above 100 µM.

For the molecule `CC1(C)S[C@@H]2[C@H](NC(=O)/C=C/c3ccccc3)C(=O)N2[C@H]1C(=O)O`, the TGI in the assay with TK-10 renal, in the assay with PC-3 prostate, in the assay with LOX IMVI melanoma, in the assay with RPMI-8226 leukemia, in the assay on NCI/ADR-RES ovarian and in the assay on U251 CNS was above 100 µM throughout. The TGI with OVCAR-4 ovarian, in the assay on HCC-2998 colon, in the assay with NCI-H23 lung, in the assay on HCT-116 colon, in the assay with SK-OV-3 ovarian and with M14 melanoma was above 100 µM each time. Also, the TGI with HOP-62 NSCLC, in the assay on SR leukemia, with HOP-92 NSCLC, with OVCAR-3 ovarian, in the assay with SNB-75 CNS and in the assay on NCI-H522 lung was above 100 µM throughout.

For the molecule `CO[C@]12C[C@H](CNC(=O)c3cc(Br)c(Br)[nH]3)O[C@H]1NC(=O)N2`, the TGI with TK-10 renal, in the assay with PC-3 prostate, in the assay with LOX IMVI melanoma, in the assay with EKVX NSCLC, in the assay with RPMI-8226 leukemia and in the assay with NCI/ADR-RES ovarian was above 100 µM in each case. Besides, the TGI with U251 CNS, in the assay with OVCAR-4 ovarian, in the assay with HCC-2998 colon, with NCI-H23 lung, in the assay on HCT-116 colon and in the assay on SK-OV-3 ovarian was above 100 µM in each case. Besides, the TGI in the assay on M14 melanoma, in the assay with HOP-62 NSCLC, with SR leukemia, in the assay with HOP-92 NSCLC, in the assay on OVCAR-3 ovarian and in the assay with SNB-75 CNS was above 100 µM each time. In addition, the TGI in the assay with NCI-H522 lung was above 100 µM.

As to `O=C(CCc1cccc(O)c1)NCCc1cccc(OCc2ccccc2)c1`, the TGI in the assay with TK-10 renal was 55.2 µM; in the assay with PC-3 prostate, 31.8 µM; in the assay on LOX IMVI melanoma it was 29.8 µM; in the assay with EKVX NSCLC, 62.2 µM; in the assay on RPMI-8226 leukemia, above 60.1 µM; in the assay with NCI/ADR-RES ovarian it was 41.2 µM. Besides, the TGI came out at 32 µM in the assay with U251 CNS; 63.6 µM in the assay on OVCAR-4 ovarian; 31.7 µM with HCC-2998 colon; 45.2 µM in the assay on NCI-H23 lung; 30.3 µM with HCT-116 colon; 53.5 µM in the assay with SK-OV-3 ovarian. Also, the TGI with M14 melanoma was 30.2 µM; with HOP-62 NSCLC it was 30.6 µM; with SR leukemia, above 71.6 µM; with HOP-92 NSCLC, 33.8 µM; in the assay on OVCAR-3 ovarian, 26 µM; with RXF 393 renal, 46.4 µM. In the assay with NCI-H522 lung, this molecule had a TGI of 33.4 µM.
